Measurements as given in patent US20170275344A1, “POLYPEPTIDES AND USES THEREOF AS A DRUG FOR TREATMENT OF AUTOIMMUNE DISORDERS” (Compugen Ltd., priority 2014, published 2017).
“And” between values parts separate entries of the source, which are not always exact repeats. Identical values can stand only once.

Tests used:
[1] = test system: healthy human skin transplanted onto beige-SCID mice; assay: Humanized psoriasis model: healthy human skin xenotransplants on beige-SCID mice injected with psoriatic patients' PBMCs; assay type: in vivo, mouse; conditions: for Healthy Skin (number of grafts) / Partial Psoriasiform With Tendency Towards Healthy skin (number of grafts) / Psoriasiform Skin (number of affected grafts, histological evaluation) / Total No. of Healthy Grafts (%): 28 days after start of treatment; for Epidermal thickness of grafts, Mean: mean of 9-10 mice, PBS mean 682; for proliferation index (% Ki-67 positive cells) in the xenografted skin: vs vehicle treated group
Source text: In this model, psoriasis is induced in xenotransplants of healthy human skin transplanted onto beige severe combined immunodeficiency (SCID) mice followed by intradermal (i.d.) injection of IL-2 enriched Peripheral Blood Mononuclear Cells (PBMCs) isolated from blood of psoriasis patients (Nickoloff, 1995; Wrone-Smith, 1996 Gilhar et al., 2002, 2006, 2011). The activity of these compounds was compared to that of Enbrel, a TNF inhibitor which is an approved biological drug for treatment of psoriasis. As a control for model robustness, we used dexamethasone, a steroid with suppressive effects on inflammatory cytokines and chemokines such as TNF-alpha and interferon-gamma which cause severe psoriasis. All treatments were administered intradermally, except for dexamethasone which was given topically.
Study Protocol: A) Healthy human skin pieces with a width of 0.4 mm and surface area of 1.5×1.5 cm were provided from residual skin of routine plastic surgery procedures from the Plastic Surgery Department of the Rambam Medical Center, Israel. In addition, 20 mL blood samples were taken from psoriatic patients. B) Seventy (70) beige-severe combined immunodeficient mice (SCID) (weight˜20-25 g) were included in this study. Normal healthy human donor skin was transplanted onto the beige-SCID mice as previously described (Nickoloff et al., 1995; Wrone-Smith, 1996; Gilhar et al., 2002, 2006, 2011; Kalish et al., 2009) and the mice were divided into 7 groups. C) Peripheral Blood Mononuclear Cells (PBMCs) isolated from psoriatic patients' blood were cultured in the presence of IL-2 [Prospec, 100 U/mL of RPMI 1640 media, 10% human AB serum (Sigma, St. Louis, Mo.), 1% glutamine, 1% antibiotics (media components; Biological Industries, Kibbutz Beit Haemeck, Israel)] for 14 days, as previously described (Gilhar et al, 2002). D) Four weeks following engraftment, each mouse was injected intra-dermally (i.d.) into the grafted skin lesion, with 1×10^7 activated allogeneic enriched PBMCs from psoriatic patients (FIG. 20). Cells from different psoriasis patients were equally distributed between treatment groups so that each patient is represented in each treatment group. E) On the day of PBMCs injection into the skin grafts, mice were divided randomly into treatment groups (n=9-10 mice per group) and administration of all drugs started (FIG. 20). All tested compounds including the vehicle were given intradermally (intralesional), three times a week, except for dexamethasone which was given topically for 14 consecutive days (Table 3).
F) Twenty eight days after starting the injections and treatment, skin was harvested (FIG. 20). Grafts were analyzed for the following psoriatic parameters by histology: epidermal thickening (acanthosis), suprapapillary epidermal thinning (papillomatosis), hyperkeratosis, parakeratosis, orthokeratosis, agranulosis-hypogranulosis, appearance of neutrophils in the upper spinous layer or in the corneal cell layer—Munro microabscess, regular elongation of rete ridges, angiogenesis, edema and dilated tortuous blood vessels in the dermal papilla and mononuclear cell infiltrate in the papillary dermis. Epidermal thickness was measured as detailed below, and HLA-DR, ICAM-1, Ki-67 and immune infiltrates (anti-CD3 stain) were evaluated by immunohistochemistry (IHC).
The entire skin graft was excised and placed in 10% formal saline overnight. Then, the specimens were place in 70% ethanol and were embedded according to the standard H&E protocol. Histological assessment of the skin grafts was performed by light microscopy and evaluated by two blinded observers [the second observer evaluated random slides (about 25% of all slides) to compare the data obtained by the first observer. […] Epidermal thickness was determined with an ocular micrometer at a minimum of 50 points along the epidermis selected to represent points of maximal and minimal thickness.
Representative grafts were allocated for IHC analysis. […]

[2] = test system: co-cultures of TcK and macrophages; assay: TcK : macrophage co-culture, cytokine secretion; assay type: cell-based, human
Procedure: • Purified CD4+ cells (2×10^6 cells/ml) are activated for 6 days in complete medium containing IL-15 (100 ng/ml), IL-6 (100 ng/ml) and TNFα (25 ng/ml).
After 6 days in culture, T cells are washed 3 times in complete medium and counted
TcKs are added to macrophage culture following removal of existing culture media at […] (5×10^4 cells/well/CD4+ T cells plus 2×10^5 cells/well CD14^+ Macrophages). C1ORF32 ECD-Fc (SEQ ID NO:43) or Control IgG are added at 1, 3, 10, 30 μg/ml. For additional controls co-cultures are added with vehicle or with medium only (Wennink et al., 2012).
After 24 hrs of culture, cytokines (IL-10, IFN-α, IL-6, IL-12, CCL5, IL-13, IL-15, IL-17, CCL3, GM-CSF, IFNγ, TNFα, IL-1RA, IL-7, IL-1B, eotaxin, IL-2 IL-4 and IL-2R) are analyzed using ELISA and/or Luminex
Co-culture of TcK with autologeuos ex-vivo differentiated macrophages mimics one of the crucial pathways mediating synovial macrophage activation in RA thus serving as a translational tool for evaluating the therapeutic potential of drug candidates. Therefore the effect of C1ORF32 ECD-Fc (SEQ ID NO:43) was tested on the secretion of a range of pro-inflammatory and anti-inflammatory cytokines in such co-cultures. Two studies were carried out, one in which buffy coats from healthy volunteers was used and another study in which the responses of RA patients blood cells responses were compared to that of healthy voluntiers in which blood was used rather than buffy coats.

[3] = test system: PBMCs from MS patients; assay: MS patients' PBMCs: proliferation and cytokine secretion; assay type: cell-based, human
Procedure: PBMCs were taken from eight MS patients with diagnosed relapsing-remitting disease who have experienced a relapse 1-2 days prior to blood drawing.
PBMCs were plated in a flat-bottom 96-well plate at 1e6 cells/well. The cells were cultured in the presence of anti-CD3 (0.5 ug/ml), MS-specific peptide MBP85-96 (10 ug/ml), or tetanus toxoid peptide TT830-843 (10 ug/ml). C1ORF32 ECD-Fc (SEQ ID NO: 43) or Control Ig were added to the cuture at the indicated concentrations. Two replicate plates were set to study for the effect of C1ORF32 ECD-Fc (SEQ ID NO: 43) on proliferation and on pro-inflammatory and anti-inflammatory cytokines secretion. To test for proliferation, the cultures were pulsed on day +1 of culture with 1 uCi of tritiated thymidine and then harvested 3 days later on day +4 of culture. For cytokine analysis, super natantes from a replicate cultures were collected on day +4 of culture and tested using Millipore multiplex assay.

[4] = healthy volunteers, 24 hrs co-culture
[5] = PBMCs activated ex-vivo with MBP85-96

Compound	Healthy Skin (number of grafts) [1]	Psoriasiform Skin (number of affected grafts, histological evaluation) [1]	Total No. of Healthy Grafts (%) [1]	Epidermal thickness of graft ([1]; Source of graft (Patient) A) [μm]	Epidermal thickness of graft ([1]; Source of graft (Patient) B) [μm]	Epidermal thickness of graft ([1]; Source of graft (Patient) C) [μm]	Epidermal thickness of graft ([1]; Source of graft (Patient) D) [μm]	Epidermal thickness of graft ([1]; Source of graft (Patient) E) [μm]	Epidermal thickness of graft ([1]; Source of graft (Patient) G1) [μm]	Epidermal thickness of graft ([1]; Source of graft (Patient) H) [μm]	Epidermal thickness of graft ([1]; Source of graft (Patient) K) [μm]	Epidermal thickness of grafts, Mean [1] [μm]	also measured
C[C@@H]1C[C@H]2[C@@H]3CCC4=CC(=O)C=C[C@]4(C)[C@@]3(F)[C@@H](O)C[C@]2(C)[C@@]1(O)C(=O)CO [dexamethasone]	7/10	2 and 2/10	70%	359	596	183	377	391	266	262	289	315	Partial Psoriasiform With Tendency Towards Healthy skin (number of grafts) [1]: 1; Partial Psoriasiform With Tendency Towards Healthy skin (number of grafts) ([1]; listed as Dexa): 1/10; Psoriasiform Skin (number of affected grafts, histological evaluation) ([1]; listed as Dexa): 2/10; Epidermal thickness of graft ([1]; Source of graft (Patient)): 204 μm; Epidermal thickness of graft ([1]; Source of graft (Patient) P): 232 μm
C1ORF32 ECD-Fc (SEQ ID NO: 43): fusion protein of human C1ORF32 ECD fused to human immunoglobulin Fc (human-human fusion protein)	5/9	4/9	55.5% and 55%	904	397	603	441	335	598	253	268	508	TNFa secretion ([2]; RA patients' (n=2) and healthy volunteers blood (n=1) samples): marked inhibition; IL-10, IL-15, IFNa, IL-7 secretion levels [2, 4]: No effect; secretion of IFNg, IL-1RA, IL-17, IL-12, IL-13, IL-6 and IL-2R [2, 4]: to a lesser extent also downregulated; secretion of TNFa, CCL5, CCL3, GM-CSF, and IL-5 [2, 4]: inhibited; IFNg, IL-17, TNFa secretion [3, 5]: inhibition; IL-4, IL-10, TGFβ and IL-6 secretion [3, 5]: increase; cell proliferation [3, 5]: inhibition of cells proliferation; proliferation, or secretion of IFNg, IL-17, and TNFa ([3]; absence of activation): no effect; IL-10, IL-4, TGFβ and IL-6 ([3]; absence of activation, in some of the donors): elevation; expression of HLA-DR, ICAM-1 and Ki-67 (IHC) ([1]; IHC of representative grafts): decreased expression; infiltration of T cells (CD3 positive cells) ([1]; IHC, vs PBS treated group): decreased infiltration of T cells; proliferation index (% Ki-67 positive cells) in the xenografted skin ([1]; IHC): trend towards decrease in proliferation index; proliferation index (% Ki-67 positive cells) in the xenografted skin ([1]; IHC, listed as C1ORF ECD-Fc (SEQ ID NO:43)): most pronounced reduction; Epidermal thickness of graft ([1]; Source of graft (Patient) G2): 775 μm; epidermal thickness compared with the vehicle-treated group ([1]; one-tailed t-Test, listed as C1ORF ECD-Fc (SEQ ID NO:43)): significant reduction in epidermal thickness
